This passage reports pest or weed control, inhibition of growth and melting point results from patent US11026427B2, “Microbiocidal oxadiazole derivatives” (SYNGENTA PARTICIPATIONS AG, priority 2016, dated 2021).

The structures appear in SMILES notation. Bounds are passed on as bounds.

The subject of one data set is Uromyces viciae-fabae. In words: Uromyces viciae-fabae / field bean / leaf disc preventative (faba-bean rust). It is filed as in vivo. Particulars: foliar, 288 h, 100 ppm in the applied formulation, compared to untreated control, read-out: disease control. The method, then: Leaf disks or leaf segments of various plant species are cut from plants grown in a greenhouse. The cut leaf disks or segments are placed in multiwell plates (24-well format) onto water agar. The leaf disks are sprayed with a test solution before (preventative) or after (curative) inoculation. Compounds to be tested are prepared as DMSO solutions (max. 10 mg/ml) which are diluted to the appropriate concentration with 0.025% Tween20 just before spraying. The inoculated leaf disks or segments are incubated under defined conditions (temperature, relative humidity, light, etc.) according to the respective test system. A single evaluation of disease level is carried out 3 to 14 days after inoculation, depending on the pathosystem. Percent disease control relative to the untreated check leaf disks or segments is then calculated.
Field bean leaf discs are placed on water agar in multiwell plates (96-well format) and 10 μl of the formulated test compound diluted in acetone and a spreader pipetted onto the leaf disc. Two hours after application leaf discs are inoculated by spraying a spore suspension on the lower leaf surface. The leaf discs are incubated in a climate cabinet at 22° C. with 18 hour day and 70% relative humidity. The activity of a compound is assessed as percent disease control compared to untreated when an appropriate level of disease damage appears in untreated check leaf disks (12 days after application).
The following compounds at 100 ppm in the applied formulation give at least 80% disease control in this test when compared to untreated control leaf discs under the same conditions, which show extensive disease development.

In data set [1] the test system is Glomerella lacenarium (Colletotrichum lacenarium). In words: Glomerella lacenarium (Colletotrichum lacenarium) liquid culture / cucumber / preventative (anthracnose). It is filed as cell-based. Particulars: 20 ppm in the applied formulation, growth inhibition measured photometrically, compared to untreated control, read-out: disease control. The essentials:
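PDB broth seeded with cryo-stored conidia, added onto compound (DMSO solution) in 96-well plates; 24° C.; photometric growth read at 3–4 d post-application; % inhibition vs untreated check.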

In a further data set the test system is Phakopsora pachyrhizi. In words: Phakopsora pachyrhizi / soybean / leaf disc preventative (Asian soybean rust). The data set is classed as in vivo. Particulars: foliar, 200 ppm in the applied formulation, compared to untreated control, read-out: disease control. The gist of the method: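 Read-out is percent disease control relative to untreated check discs, assessed once untreated discs show adequate disease, 12 to 14 days after application. Compounds, tested at 200 ppm in the applied formulation, are sprayed onto soybean leaf discs one day before inoculation with a spore suspension.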

For data set [2], the system named is Puccinia recondita f. Sp. tritici. In words: Puccinia recondita f. sp. tritici / wheat / leaf disc preventative (brown rust). It is filed as in vivo. The following applies: foliar, 200 ppm in the applied formulation, compared to untreated control, read-out: disease control. The essentials:
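Wheat cv. Kanzler leaf segments on agar sprayed with diluted compound, inoculated with brown rust spores 1 day later. Kept at 19° C., 75% rh, 12 h light/dark; percent disease control versus untreated segments scored 7 to 9 days after application, compounds tested at 200 ppm.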

Data set [3] shares this test system. Briefly: Puccinia recondita f. sp. tritici / wheat / leaf disc curative (brown rust). It is filed as in vivo. Particulars: foliar, 200 ppm in the applied formulation, compared to untreated control, read-out: disease control. The essentials: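 Curative leaf-segment test, cv. Kanzler: spore inoculation, dark storage 19° C/75% RH, compound spray 1 day post-inoculation. Then 12 h light/12 h dark, 19° C, 75% RH. Read-out: % disease control vs untreated check, 6–8 d after application.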

`O=C(c1ccccc1)c1ccc(-c2noc(C(F)(F)F)n2)cc1` [Compound 1.3, phenyl-[4-[5-(trifluoromethyl)-1,2,4-oxadiazol-3-yl]phenyl]methanone]: the melting point is 110 to 115 °C. In addition, in the data set with Uromyces viciae-fabae, the pest or weed control at 100 ppm was not below 80%. The inhibition of growth at 20 ppm in data set [1] was not below 80%. The pest or weed control at 200 ppm in the data set on Phakopsora pachyrhizi was not below 80%.

In the case of `C/C=C/CC(=O)c1ccc(-c2noc(C(F)(F)F)n2)cc1` [Compound 1.11, 1-[4-[5-(trifluoromethyl)-1,2,4-oxadiazol-3-yl]phenyl]pent-3-en-1-one], the pest or weed control at 100 ppm in the data set on Uromyces viciae-fabae was not below 80%. In data set [1], the inhibition of growth at 20 ppm is not below 80%. For the same compound, the pest or weed control at 200 ppm in the data set with Phakopsora pachyrhizi was not below 80%.

Turning to `Cc1ccsc1C(=O)c1ccc(-c2noc(C(F)(F)F)n2)cc1` [Compound 1.12, (3-methyl-2-thienyl)-[4-[5-(trifluoromethyl)-1,2,4-oxadiazol-3-yl]phenyl]methanone], the pest or weed control at 100 ppm with Uromyces viciae-fabae is not below 80%. The inhibition of growth at 20 ppm in data set [1] is not below 80%. In addition, the pest or weed control at 200 ppm with Phakopsora pachyrhizi is not below 80%.

As to `OC(c1ccccc1)c1ccc(-c2noc(C(F)(F)F)n2)cc1` (stereo not shown) [Compound 2.2, phenyl-[4-[5-(trifluoromethyl)-1,2,4-oxadiazol-3-yl]phenyl]methanol], the melting point lay in the range of 63 to 69 °C. In addition, in the data set with Uromyces viciae-fabae, the pest or weed control at 100 ppm was not below 80%. In addition, in data set [1], the inhibition of growth at 20 ppm is not below 80%. Further, in data set [2], the pest or weed control at 200 ppm is not below 80%. Besides, in the data set with Phakopsora pachyrhizi, the pest or weed control at 200 ppm is not below 80%.

Regarding `COc1ccc(C(O)c2ccc(-c3noc(C(F)(F)F)n3)cc2)cc1` (stereo not shown) [Compound 2.4, (4-methoxyphenyl)-[4-[5-(trifluoromethyl)-1,2,4-oxadiazol-3-yl]phenyl]methanol], the melting point was 67 to 70 °C. Further, in the data set with Uromyces viciae-fabae, the pest or weed control at 100 ppm was not below 80%. The pest or weed control at 200 ppm in the data set with Phakopsora pachyrhizi is not below 80%.

With `CC#CC(O)c1ccc(-c2noc(C(F)(F)F)n2)cc1` (stereo not shown) [Compound 2.6, 1-[4-[5-(trifluoromethyl)-1,2,4-oxadiazol-3-yl]phenyl]but-2-yn-1-ol], the melting point is 93 to 96 °C. Moreover, the pest or weed control at 100 ppm in the data set on Uromyces viciae-fabae was not below 80%. Moreover, in data set [1], the inhibition of growth at 20 ppm is not below 80%. Moreover, the pest or weed control at 200 ppm in data set [3] was not below 80%. The pest or weed control at 200 ppm in data set [2] was not below 80%. For the same compound, the pest or weed control at 200 ppm in the data set with Phakopsora pachyrhizi was not below 80%.

With `C=C(C)C(O)c1ccc(-c2noc(C(F)(F)F)n2)cc1` (stereo not shown) [Compound 2.8, 2-methyl-1-[4-[5-(trifluoromethyl)-1,2,4-oxadiazol-3-yl]phenyl]prop-2-en-1-ol], the pest or weed control at 100 ppm in the data set with Uromyces viciae-fabae was not below 80%. In data set [1], the inhibition of growth at 20 ppm was not below 80%. In addition, the pest or weed control at 200 ppm in the data set on Phakopsora pachyrhizi was not below 80%.

Compound `Cc1ccsc1C(O)c1ccc(-c2noc(C(F)(F)F)n2)cc1` (stereo not shown) [Compound 2.10, (3-methyl-2-thienyl)-[4-[5-(trifluoromethyl)-1,2,4-oxadiazol-3-yl]phenyl]methanol] yielded a melting point of 68 to 73 °C. The pest or weed control at 100 ppm with Uromyces viciae-fabae was not below 80%. The inhibition of growth at 20 ppm in data set [1] was not below 80%. The pest or weed control at 200 ppm with Phakopsora pachyrhizi is not below 80%.

By melting point is commonly meant the temperature, or range, at which the solid turns liquid.
